Experiments:
CAL-148 = assay: drug sensitivity score (DSS), CellTiter-Glo (DSS (AUC-based score)); higher = stronger drug effect (viability inhibition or cytotoxicity); extreme values may be limits of the assay; conditions: incubation time: 72 h
How it was run: (§1)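 Each compound occupied 5 concentrations in 10-fold steps over its own 10,000-fold range in 384-well plates, into which breast cancer cell lines were seeded as 20 µl suspension. Following 72 h of incubation, CellTox Green fluorescence (485/520 nm) was measured, and CellTiter-Glo luminescence was measured after 10 min at room temperature. Plates were individually normalised to 0.1 % DMSO and a positive kill control. From the area under the fitted dose-response curve, a drug sensitivity score was calculated.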

BT-549 = assay: as above; conditions: incubation time: 72 h
How it was run: as §1

MFM-223 = assay: as above; conditions: incubation time: 72 h
How it was run: as §1

BT-474 [1] = assay: as above; conditions: incubation time: 72 h
How it was run: as §1

CAL-51 [2] = assay: as above; conditions: incubation time: 72 h
How it was run: as §1

HDQ-P1 = assay: as above; conditions: incubation time: 72 h
How it was run: as §1

MDA-MB-436 = assay: as above; conditions: incubation time: 72 h
How it was run: as §1

HCC1599 = assay: as above; conditions: incubation time: 72 h
How it was run: as §1

CAL-51 [3] = conditions: 72 h
How it was run: (§2)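 Breast cancer cell lines (20 µl suspension) were seeded into 384-well plates holding compound at 5 concentrations in 10-fold steps over a compound-specific 10,000-fold range, then incubated 72 h. Cell death was read first by CellTox Green fluorescence (485/520 nm), then viability by CellTiter-Glo luminescence after 10 min at room temperature. Each plate was normalised to 0.1 % DMSO and a positive kill control. EC50 was fitted from the dose-response curves and censored at the top concentration.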

MDA-MB-231 = conditions: 72 h
How it was run: (§3)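 Plates of 384 wells holding compound in 5 µl medium received breast cancer cell lines in 20 µl suspension and were incubated 72 h. CellTiter-Blue (2.5 µl, 2 h, 37 °C) was used for viability, read at 560/590 nm, and every plate was normalised to vehicle and a positive kill control and assessed by Z'-factor. The EC50 derives from a percent-inhibition dose-response curve fit censored at the highest concentration, leaving out rows whose drug sensitivity score was zero.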

HCC1937 = conditions: 72 h
How it was run: as §3

CAL-120 = conditions: 72 h
How it was run: as §3

MDA-MB-468 = conditions: 72 h
How it was run: as §2

BT-474 [4] = conditions: 72 h
How it was run: as §2

Compound | EC50, CellTiter-Blue viability (MDA-MB-231) [nM] | EC50, CellTiter-Blue viability (HCC1937) [nM] | EC50, CellTiter-Glo (MDA-MB-468) [nM] | EC50, CellTiter-Glo (BT-474 [4]) [nM] | drug sensitivity score (CAL-148) | drug sensitivity score (BT-549) | drug sensitivity score (MFM-223) | drug sensitivity score (BT-474 [1]) | drug sensitivity score (CAL-51 [2]) | drug sensitivity score (HDQ-P1) | drug sensitivity score (MDA-MB-436) | drug sensitivity score (HCC1599) | EC50, CellTiter-Glo (CAL-51 [3]) [nM] | EC50, CellTiter-Blue viability (CAL-120) [nM]
Cc1ccc(C(=O)N(CCCN)[C@@H](c2oc3cc(Cl)ccc3c(=O)c2Cc2ccccc2)C(C)C)cc1 | 0.34 | 0.62 | – | – | 0 | 0 | 0 | 0 | 9.66 | 0 | 0 | 0 | 0.24 | 0.57
NC(=O)Nc1cc(-c2cccc(F)c2)sc1C(=O)N[C@H]1CCCNC1 [AZD7762] | – | – | 596 | 233 | 0 | 8.18 | 0 | 4.13 | 1.07 | 3.06 | 5.18 | 6.96 | 707 | –
NC(=O)Nc1cc(-c2cccc(F)c2)sc1C(=O)N[C@H]1CCCNC1 [AZD 7762] | 347 | 613 | – | – | – | – | – | – | – | – | – | – | – | 560
CO[C@H]1/C=C\C=C(/C)C(=O)NC2=CC(=O)C(NCCN(C)C)=C(C[C@@H](C)C[C@H](OC)[C@H](O)[C@@H](C)/C=C(\C)[C@@H]1OC(N)=O)C2=O [Alvespimycin] | 38.9 | 7.56 | 32 | 48.8 | 13.3 | 16.1 | 13.1 | 11.6 | 13.4 | 14 | 13.1 | 4.92 | 48 | 27.4
CCN(CCCOc1ccc2c(Nc3cc(CC(=O)Nc4cccc(F)c4)[nH]n3)ncnc2c1)CCOP(=O)(O)O [Barasertib] | 156 | 29.6 | – | – | – | – | – | – | – | – | – | – | – | 30
C[C@@H](Oc1cc(-c2cnn(C3CCNCC3)c2)cnc1N)c1c(Cl)ccc(F)c1Cl [Crizotinib] | 1360 | 2280 | > 1000 | – | 0 | 0 | 0 | 0 | 0 | 0 | 0 | 0 | – | 2640
O=P1(NCCCl)OCCCN1CCCl (stereo not drawn) [Ifosfamide] | – | – | – | > 10000 | 0 | 0 | 0 | 0.0144 | 0 | 0 | 0 | 0 | – | –

More lines, main results first:

EC50, CellTiter-Blue viability (MDA-MB-231) [nM] | EC50, CellTiter-Blue viability (HCC1937) [nM] | EC50, CellTiter-Glo (MDA-MB-468) [nM] | EC50, CellTiter-Glo (BT-474 [4]) [nM] | Compound | drug sensitivity score (CAL-148) | drug sensitivity score (BT-549) | drug sensitivity score (MFM-223) | drug sensitivity score (BT-474 [1]) | drug sensitivity score (CAL-51 [2]) | drug sensitivity score (HDQ-P1) | drug sensitivity score (MDA-MB-436) | drug sensitivity score (HCC1599) | EC50, CellTiter-Glo (CAL-51 [3]) [nM] | EC50, CellTiter-Blue viability (CAL-120) [nM]
– | – | 179 | > 1000 | COc1cc2ncnc(Nc3ccc(F)c(Cl)c3)c2cc1NC(=O)/C=C/CN1CCCCC1 [Dacomitinib] | 0 | 1.11 | 0 | 0.458 | 0 | 8.45 | 0.907 | 0 | – | –
– | – | 937 | – | Cc1ccc(-n2nc(C(C)(C)C)cc2NC(=O)Nc2ccc(OCCN3CCOCC3)c3ccccc23)cc1 [Doramapimod] | 0 | 0 | 2.15 | 1.64 | 0 | 1.32 | 0 | 0 | – | –
– | 937 | – | – | C#Cc1cccc(Nc2ncnc3cc(OCCOC)c(OCCOC)cc23)c1 [Erlotinib] | 1.84 | 0 | 0 | 0 | 2.18 | 9.11 | 0.203 | 0 | 1130 | 2450
1020 | 3700 | 1730 | 2810 | COc1cc([C@@H]2c3cc4c(cc3[C@@H](O[C@@H]3O[C@@H]5CO[C@@H](C)O[C@H]5[C@H](O)[C@H]3O)[C@H]3COC(=O)[C@H]23)OCO4)cc(OC)c1O [Etoposide] | 7.19 | 5.14 | 0 | 3.57 | 8.68 | 0.733 | 7.41 | 9.75 | 1090 | 2260
– | – | 3480 | 5780 | N#CCNC(=O)c1ccc(-c2ccnc(Nc3ccc(N4CCOCC4)cc3)n2)cc1 [Momelotinib] | 0 | 6.02 | 0 | 4.25 | 0 | 0 | 0 | 0 | – | –
